# Data published in PMC8568530, “Inhibition of Vascular Smooth Muscle and Cancer Cell Proliferation by New VEGFR Inhibitors and Their Immunomodulator Effect: Design, Synthesis, and Biological Evaluation” (Oxidative Medicine and Cellular Longevity, 2021).
# Key:
# [1] = tested on: WI-38 cell line (normal human lung fibroblasts); test: MTT cytotoxicity against normal cells WI-38; type: cell-based; settings: normal human lung fibroblasts WI-38
# Method: The cytotoxicity values of the synthesized compounds against the WI-38 cell line (normal human lung fibroblasts) were also evaluated in vitro.
# (§1) The antiproliferative activity of the synthesized compounds was evaluated using MTT protocol as described (Supplementary data (available here)).
# HCT-116 = test: MTT antiproliferative assay, HCT-116; type: cell-based; settings: Homo sapiens, colorectal carcinoma HCT-116
# Method: (§2) The in vitro antiproliferative activities of the newly synthesized compounds were evaluated against a panel of three human tumor cell lines, namely, breast cancer (MCF-7), hepatocellular carcinoma (HepG-2), and colorectal carcinoma (HCT-116) using the standard MTT method. The tested cell lines were selected depending on their VEGF overexpression. Sorafenib, the lead drug, was coassayed as a positive control.
# as §1
# HepG-2 = test: MTT antiproliferative assay, HepG-2; type: cell-based; settings: Homo sapiens, HepG2, hepatocellular carcinoma HepG-2
# Method: as §2, §1
# MCF-7 = test: MTT antiproliferative assay, MCF-7; type: cell-based; settings: Homo sapiens, MCF7, breast cancer MCF-7
# Method: as §2, §1
# Bcl-2 = Bcl-2 level in HepG-2 cells; type: cell-based, human; settings: for Bcl-2 Conc.: HepG-2 cells treated with compound; for Bcl-2 Fold: HepG-2 cells, versus control
# Source text: (§3) (2) Effects on Bcl-2 Family Proteins. The Bcl-2 family proteins are vital regulators of apoptosis cell death. Members of this family include the proapoptotic factor Bax which promotes cell death and the prosurvival (antiapoptotic) Bcl-2 which suppresses cell death. […] Results are expressed in Table 3.
# (§4) (2) Effects on Bcl-2 Family Proteins. […] (Supplementary data).
# caspase-3 = test: Active caspase-3 level in HepG-2 cells; type: cell-based, human; settings: for Caspase 3 Conc.: HepG-2 cells treated with compound; for Caspase 3 Fold: HepG-2 cells, versus control
# Source text: (1) Effects on the Levels of Active Caspase-3. A significant mechanism by which anticancer agents can affect cancer cells is apoptosis. Apoptosis is a process of automated cell death. The apoptosis mechanism is typically mediated by a group of proteases called caspases. Caspase-3 is activated in every mammalian cell type provoking the cell to die, considered one of the apoptosis marks.
# (1) Effects on the Levels of Active Caspase-3. […] (Supplementary data).
# TNF-α = TNF-α in HepG-2 supernatant (ELISA); type: cell-based, human
# Source text: (1) Estimation of Human Tumor Necrosis Factor Alpha (TNF-α) in HepG-2 Supernatant. […] Celecoxib, a potent inhibitor of TNF-α-induced cytokine expressions, was used as a positive control. […] Among the tested compounds, compound 7a caused a remarkably significant reduction in TNF-α levels (87%) in comparison to celecoxib (86%).
# The levels of TNF-α in cell culture supernatants were estimated by the ELISA technique according to the reported procedure.
# VEGFR-2 = VEGFR-2 (Homo sapiens, UniProt P35968); test: In vitro VEGFR-2 enzyme inhibition assay; type: biochemical; settings: read-out: IC50 against VEGFR-2
# BAX = BAX level in HepG-2 cells; type: cell-based, human; settings: for BAX Conc.: HepG-2 cells treated with compound; for BAX Fold: HepG-2 cells, versus control
# Source text: as §3, §4
# VEGFR-2, sequence (P35968 20-1356): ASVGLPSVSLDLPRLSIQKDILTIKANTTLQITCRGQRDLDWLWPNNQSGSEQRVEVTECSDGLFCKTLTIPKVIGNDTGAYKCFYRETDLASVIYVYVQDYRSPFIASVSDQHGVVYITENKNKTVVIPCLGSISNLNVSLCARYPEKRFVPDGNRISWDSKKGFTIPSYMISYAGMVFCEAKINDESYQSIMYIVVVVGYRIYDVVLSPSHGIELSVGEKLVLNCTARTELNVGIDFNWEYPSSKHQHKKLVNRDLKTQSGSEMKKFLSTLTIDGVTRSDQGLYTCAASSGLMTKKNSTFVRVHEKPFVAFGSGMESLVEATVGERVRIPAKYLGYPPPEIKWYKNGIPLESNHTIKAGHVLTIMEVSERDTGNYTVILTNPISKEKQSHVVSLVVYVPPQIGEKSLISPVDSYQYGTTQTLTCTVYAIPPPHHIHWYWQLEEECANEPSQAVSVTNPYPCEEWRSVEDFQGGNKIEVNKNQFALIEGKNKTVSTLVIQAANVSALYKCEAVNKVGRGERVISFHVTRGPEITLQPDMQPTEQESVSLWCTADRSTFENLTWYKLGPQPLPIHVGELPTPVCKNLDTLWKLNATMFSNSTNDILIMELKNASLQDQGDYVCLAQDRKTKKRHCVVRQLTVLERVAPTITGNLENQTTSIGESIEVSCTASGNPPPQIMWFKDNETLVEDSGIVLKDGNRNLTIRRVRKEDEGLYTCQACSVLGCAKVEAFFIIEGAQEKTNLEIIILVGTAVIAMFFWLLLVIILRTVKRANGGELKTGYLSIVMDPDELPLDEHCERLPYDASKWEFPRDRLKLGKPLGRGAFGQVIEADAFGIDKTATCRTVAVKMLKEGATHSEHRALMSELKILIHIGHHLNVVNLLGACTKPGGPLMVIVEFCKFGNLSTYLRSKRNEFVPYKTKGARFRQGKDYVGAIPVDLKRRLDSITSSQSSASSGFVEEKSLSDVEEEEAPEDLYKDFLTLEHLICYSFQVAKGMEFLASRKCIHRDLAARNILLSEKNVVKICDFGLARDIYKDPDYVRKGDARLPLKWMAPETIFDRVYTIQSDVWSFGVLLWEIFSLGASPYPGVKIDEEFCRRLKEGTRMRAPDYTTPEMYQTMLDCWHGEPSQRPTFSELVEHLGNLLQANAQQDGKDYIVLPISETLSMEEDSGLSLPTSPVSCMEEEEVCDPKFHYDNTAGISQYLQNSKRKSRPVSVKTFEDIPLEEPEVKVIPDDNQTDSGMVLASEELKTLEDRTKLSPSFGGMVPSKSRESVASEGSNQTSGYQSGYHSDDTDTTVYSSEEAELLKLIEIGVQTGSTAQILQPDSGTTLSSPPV
SMILES,IC50 (HCT-116),melting point,IC50 (MCF-7),IC50 (VEGFR-2),IC50 [1],IC50 (HepG-2),Bcl-2 Conc. (Bcl-2),Bcl-2 Fold (Bcl-2),Caspase 3 Conc. (caspase-3),Caspase 3 Fold (caspase-3),TNF-α % inhibition (TNF-α),BAX Conc. (BAX),BAX Fold (BAX)
"O=C(Nc1ccc(C(=O)Nc2ccc(Cl)cc2Cl)cc1)c1cccnc1 [Compound 7g, N-(4-((2,4-Dichlorophenyl)carbamoyl)phenyl)nicotinamide]",31.7 µM,189 to 192 °C,42.1 µM,,132 µM,26.6 µM,,,,,,,
"O=C(NNC(=O)C(F)(F)F)c1ccc(NC(=O)c2cccnc2)cc1 [Compound 10, N-(4-(2-(2,2,2-Trifluoroacetyl)hydrazine-1-carbonyl)phenyl)nicotinamide]",5.49 µM,,3.55 µM,7.68 µM,78.4 µM,3.16 µM,2.72 pg/mL,0.51 fold,334.57 pg/mL,6.51 fold,40%,231.6 pg/mL,10.73 fold
"COc1ccccc1NC(=O)c1ccc(NC(=O)c2cccnc2)cc1 [Compound 7c, N-(4-((2-Methoxyphenyl)carbamoyl)phenyl)nicotinamide]",15.3 µM,185 to 187 °C,11.8 µM,,137 µM,19.4 µM,,,,,,,
"O=C(NCc1ccccc1)c1ccc(NC(=O)c2cccnc2)cc1 [Compound 6, N-(4-(Benzylcarbamoyl)phenyl)nicotinamide]",16.4 µM,229 to 232 °C,18.3 µM,,117 µM,15.5 µM,,,,,,,
"O=C(Nc1ccc(Cl)cc1)c1ccc(NC(=O)c2cccnc2)cc1 [Compound 7e, N-(4-((4-Chlorophenyl)carbamoyl)phenyl)nicotinamide]",17.8 µM,272 to 274 °C,13.4 µM,,143 µM,22.4 µM,,,,,,,
"COc1ccc(NC(=O)c2ccc(NC(=O)c3cccnc3)cc2)cc1 [Compound 7b, N-(4-((4-Methoxyphenyl)carbamoyl)phenyl)nicotinamide]",2.54 µM,,1.25 µM,3.45 µM,82.2 µM,2.12 µM,1.92 pg/mL,0.36 fold,397.61 pg/mL,,72%,257.5 pg/mL,11.93 fold
"O=C(Nc1ccccc1)c1ccc(NC(=O)c2cccnc2)cc1 [Compound 7d, N-(4-(Phenylcarbamoyl)phenyl)nicotinamide]",31.5 µM,232 to 235 °C,23.1 µM,,144 µM,29.1 µM,,,,,,,
"O=C(Nc1ccc(F)cc1)c1ccc(NC(=O)c2cccnc2)cc1 [Compound 7l, N-(4-((4-Fluorophenyl)carbamoyl)phenyl)nicotinamide]",2.75 µM,,3.5 µM,3.84 µM,68.2 µM,2.64 µM,2.11 pg/mL,0.39 fold,340.42 pg/mL,6.62 fold,74%,226.9 pg/mL,10.51 fold
"O=C(Nc1ccc(C(=O)Nc2ccccc2[N+](=O)[O-])cc1)c1cccnc1 [Compound 7i, N-(4-((2-Nitrophenyl)carbamoyl)phenyl)nicotinamide]",18.4 µM,198 to 201 °C,16.1 µM,,103 µM,15.2 µM,,,,,,,
"CNC(=O)c1cc(Oc2ccc(NC(=O)Nc3ccc(Cl)c(C(F)(F)F)c3)cc2)ccn1 [Sorafenib, reference compound]",5.28 µM,,4.32 µM,,,3.76 µM,,,,,,,

# Further lines, with some results ahead:
IC50 (HCT-116),melting point,IC50 (MCF-7),IC50 (VEGFR-2),SMILES,IC50 [1],IC50 (HepG-2),Bcl-2 Conc. (Bcl-2),Bcl-2 Fold (Bcl-2),Caspase 3 Conc. (caspase-3),Caspase 3 Fold (caspase-3),TNF-α % inhibition (TNF-α),BAX Conc. (BAX),BAX Fold (BAX)
14.5 µM,283 to 285 °C,18.2 µM,,"O=C(N/N=C/c1c(Cl)cccc1Cl)c1ccc(NC(=O)c2cccnc2)cc1 [Compound 11e, (E)-N-(4-(2-(2,6-Dichlorobenzylidene)hydrazine-1-carbonyl)phenyl)-nicotinamide]",80.1 µM,23.9 µM,,,,,,,
5.13 µM,,5.81 µM,5.23 µM,"O=C(CSc1nnc(-c2cccnc2)o1)Nc1ccc(Cl)cc1 [Compound 18a, N-(4-Chlorophenyl)-2-((5-(pyridin-3-yl)-1,3,4-oxadiazol-2-yl)thio)acetamide]",123 µM,8.29 µM,2.63 pg/mL,0.49 fold,267.64 pg/mL,5.20 fold,45%,113.5 pg/mL,5.26 fold
4.19 µM,,2.67 µM,6.57 µM,"O=C(CSc1nnc(-c2cccnc2)o1)Nc1ccccc1 [Compound 18b, N-Phenyl-2-((5-(pyridin-3-yl)-1,3,4-oxadiazol-2-yl)thio)acetamide]",64.3 µM,6.11 µM,2.51 pg/mL,0.47 fold,310.75 pg/mL,6.04 fold,54%,154.4 pg/mL,7.15 fold
1.94 µM,,4.15 µM,2.74 µM,"COc1ccc(/C=N/NC(=O)c2ccc(NC(=O)c3cccnc3)cc2)cc1 [Compound 11d, (E)-N-(4-(2-(4-Methoxybenzylidene)hydrazine-1-carbonyl)phenyl)-nicotinamide]",50.3 µM,2.23 µM,1.72 pg/mL,0.32 fold,391.23 pg/mL,,81%,237.9 pg/mL,11.02 fold
13.4 µM,260 to 262 °C,15.5 µM,,"O=C(N/N=C/c1ccccc1)c1ccc(NC(=O)c2cccnc2)cc1 [Compound 11b, (E)-N-(4-(2-Benzylidenehydrazine-1-carbonyl)phenyl)-nicotinamide]",72.3 µM,17.6 µM,,,,,,,
21.7 µM,167 to 169 °C,19.4 µM,,"O=C(CSc1nnc(-c2cccnc2)o1)NCc1ccccc1 [Compound 18c, N-Benzyl-2-((5-(pyridin-3-yl)-1,3,4-oxadiazol-2-yl)thio)acetamide]",92.1 µM,8.59 µM,,,,,,,
34.9 µM,256 to 259 °C,20.2 µM,,"O=C(N/N=C/c1ccc(O)cc1)c1ccc(NC(=O)c2cccnc2)cc1 [Compound 11h, (E)-N-(4-(2-(4-Hydroxybenzylidene)hydrazine-1-carbonyl)phenyl)-nicotinamide]",103 µM,31.1 µM,,,,,,,
17.2 µM,263 to 265 °C,12.3 µM,,"O=C(N/N=C/c1ccc(F)cc1)c1ccc(NC(=O)c2cccnc2)cc1 [Compound 11a, (E)-N-(4-(2-(4-Fluorobenzylidene)hydrazine-1-carbonyl)phenyl)-nicotinamide]",85.1 µM,15.5 µM,,,,,,,
